Measured values reported in the NIST ThermoML archive (doi:10.1016/j.jct.2012.12.018).
± gives the expanded uncertainty stated by the source.

Assay: xn = mol fraction of the nth substance listed
Conditions: Gas, Buoyancy - hydrostatic balance with magnetic suspension - one sinker, x2 = 0.8977

N#N [nitrogen] + C
Conditions | mass density [kg/m3]
170.59 K, 761.2 kPa | 10.0103 ± 0.2
170.59 K, 1037.8 kPa | 14.0966 ± 0.28
170.59 K, 1287.8 kPa | 18.0625 ± 0.36
170.6 K, 455.1 kPa | 5.7907 ± 0.12
187.47 K, 422.8 kPa | 4.8286 ± 0.097
187.47 K, 722.4 kPa | 8.4419 ± 0.17
187.47 K, 1064.8 kPa | 12.7954 ± 0.26
187.47 K, 1349.6 kPa | 16.6251 ± 0.33
217.54 K, 441.1 kPa | 4.2954 ± 0.086
217.54 K, 1298.9 kPa | 13.1778 ± 0.26
217.54 K, 1475.3 kPa | 15.0994 ± 0.3
217.55 K, 724.1 kPa | 7.1436 ± 0.14
217.55 K, 1017.9 kPa | 10.1853 ± 0.2
240.48 K, 975.3 kPa | 8.695 ± 0.17
240.48 K, 1256.7 kPa | 11.3113 ± 0.23
240.48 K, 1594.5 kPa | 14.5212 ± 0.29
240.49 K, 438.2 kPa | 3.8367 ± 0.077
240.49 K, 715.8 kPa | 6.3263 ± 0.13
261 K, 145.7 kPa | 1.1633 ± 0.024
261 K, 436.6 kPa | 3.5148 ± 0.07
261 K, 729 kPa | 5.9093 ± 0.12
261 K, 1021.7 kPa | 8.3427 ± 0.17
270.05 K, 133.3 kPa | 1.0285 ± 0.021
270.05 K, 424.6 kPa | 3.2976 ± 0.066
270.05 K, 731.4 kPa | 5.7195 ± 0.11
270.05 K, 1025.7 kPa | 8.0721 ± 0.16
270.05 K, 1195.4 kPa | 9.445 ± 0.19
